These results are taken from paper PMC5318439, “The Novel Toll-Like Receptor 2 Agonist SUP3 Enhances Antigen Presentation and T Cell Activation by Dendritic Cells” (Frontiers in Immunology, 2017).

Where a SMILES comes first, the peptide text is derived from it. The star is where a group is joined. X1 = CCCCCCCCCCCCCCNC(=O)OC[C@H](C*)OC(=O)NCCCCCCCCCCCCCC; Palmitoyl = CCCCCCCCCCCCCCCC(=O)*

Test [1] relates to OT-II CD4^+ T cells. The test can be described thus: OT-II CD4+ T cell activation in vivo. Also noted: species or system mice. The following applies: OVA 100 µg per mouse s.c. with 2 nmol per mouse, 3 days; vs Pam3. Here is the method:
Carboxyfluorescein diacetate succinimidyl ester-stained OT-II CD4^+ T cells (2 × 10^6 cells per mouse) were transferred into mice 1 day prior immunization. Then the recipients were subcutaneously (s.c.) injected with OVA alone (100 µg per mouse), or OVA mixed with SUP3 (2 nmol per mouse) or Pam3 (2 nmol per mouse) at groin. Three days after immunization, OT-II CD4^+ T cells from inguinal lymph nodes were analyzed by flow cytometry.
Figure 5 SUP3 enhanced antigen presentation ability of CD11b^+ conventional dendritic cells (cDCs) and production of antibodies against thymus-dependent (TD) antigens. […] Three days after immunization, division of OT-II CD4^+ T cells from inguinal lymph nodes were analyzed by flow cytometry (B). Absolute numbers of proliferated OT-II CD4^+ T cells were calculated in (C). […] Cells were then thoroughly washed and cocultured with CFSE-stained OT-II CD4^+ T cells for 4 days and analyzed by flow cytometry. (D) The division of OT-II cells was measured by reduced level of CFSE-labeling. (E) Absolute numbers of proliferated T cells from (D) were calculated. (F) SUP3 (2 nmol per mouse), Pam3 (2 nmol per mouse), or PBS were i.v. injected into mice for 1 h, and splenic CD11b^+ cDCs were enriched and analyzed for CD86 expression by flow cytometry. […] The cytokines from supernatant were determined by ELISA (*p < 0.05, **p < 0.01). […]

Test [2] deals with OVA-expressing B16 melanoma cells (B16-OVA). Briefly: B16-OVA melanoma lung metastasis tumor model after immunization. The following applies: immunized OCS + 2 nmol per mouse for 30 days, B16-OVA 5 × 10^5 cells i.v., 16 days after challenge; vs OCS alone or OCS with Pam3. It counts as in vivo, mice. From the text:
Tumor model was applied as previously described with some modifications ([42]). Briefly, mice were immunized by OCS alone, OCS with Pam3 (2 nmol per mouse), or OCS with SUP3 (2 nmol per mouse) for 30 days. Then mice were i.v. injected with OVA-expressing B16 melanoma cells (B16-OVA) (5 × 10^5 cells per mouse). After 16 days, the numbers of metastatic tumors in lung were counted.
Figure 2 SUP3 induced more vigorous cytotoxic T lymphocytes (CTLs) responses than Pam3CSK4 without excessive production of inflammatory cytokines in vivo. […] The percentages of pentamer positive cells (CD19^− CD3^+ CD8^+ SIINFEKL/H-2Kb-Pentamer^+) in spleens, i.e., the OVA-specific CD8^+ T cells, were determined by flow cytometry (A) and the statistic calculation is presented in (B). […] (C,D) Mice were immunized as in (A) for 30 days, then inoculated with OVA-expressing B16 melanoma cells (B16-OVA) (5 × 10^5 cells per mouse) by i.v. injection and analyzed for metastatic tumor formation in the lung 16 days after inoculation. […] (E) Mice were i.v. injected with SUP3 (2 nmol per mouse), Pam3 (2 nmol per mouse), or lipopolysaccharide (LPS) (1 µg per mouse) for 1 h, the serum was collected, and the levels of different cytokines were determined by ELISA. “n.d.” indicates “not detected.” *p < 0.05, **p < 0.01. […]

On to `CCCCCCCCCCCCCCCC(=O)N[C@@H](CSC[C@@H](COC(=O)NCCCCCCCCCCCCCC)OC(=O)NCCCCCCCCCCCCCC)C(=O)NCC(=O)N[C@@H](CCCCN)C(=O)N[C@@H](CCCCN)C(=O)N[C@@H](CCCCN)C(=O)O` [SUP3, (2S,5S,8S,14R,18R)-2,5,8-tris(4-aminobutyl)-4,7,10,13,21-pentaoxo-14-palmitamido-18-((tetradecylcarbamoyl)oxy)-20-oxa-16-thia-3,6,9,12,22-pentaazahexatriacontan-1-oic acid] (Palmitoyl-C(X1)GKKK-OH), for which the “proliferation of OT-II CD4+ T cells in draining lymph nodes” value in test [1] is reported as “more proliferation of OT-II CD4^+ T cells than that with Pam3”. In addition, the “number of metastatic tumors in the lungs” value in test [2] is recorded as “markedly reduced number of tumors in the lungs”.
